For assay [1], the target named is MtVKOR (Mycobacterium tuberculosis, UniProt I6X5W1). The experiment in a line: In vitro ubiquinone reduction assay with purified MtVKOR. In kind it is biochemical, M. tuberculosis.
In assay [2] the target is human protein disulfide isomerase (PDI) (Homo sapiens, UniProt P07237). The experiment in a line: PDI insulin reduction assay. The format is biochemical.
Assay [3] has as its system MtVKOR expressed in E. coli. In kind it is cell-based, M. tuberculosis.
Assay [4] concerns the target T1, PaDsbB1 expressed in E. coli (Pseudomonas aeruginosa, UniProt Q02TM7).
T1 sequence (Q02TM7 1-169): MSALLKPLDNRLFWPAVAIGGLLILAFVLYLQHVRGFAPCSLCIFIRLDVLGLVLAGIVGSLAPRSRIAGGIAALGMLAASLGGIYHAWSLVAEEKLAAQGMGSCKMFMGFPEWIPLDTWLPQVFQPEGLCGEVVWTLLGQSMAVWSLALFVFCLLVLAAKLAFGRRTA
In kind it is cell-based, P. aeruginosa. The note with it: agar plates, HTS control.

For assay [5], the system named is M. tuberculosis H37Rv. The experiment in a line: M. tuberculosis H37Rv growth inhibition. The note with it: alamar blue assay, ±SD.
Assay [6] relates to M. tuberculosis JR1740 strain. In kind it is cell-based. The note with it: JR1740 ± ATc.
For assay [7], the target named is T2, RnVKOR expressed in E. coli (Rattus norvegicus, UniProt Q6TEK4, DEL31-33).
T2 sequence (Q6TEK4 with tags, fused parts or gaps DEL31-33): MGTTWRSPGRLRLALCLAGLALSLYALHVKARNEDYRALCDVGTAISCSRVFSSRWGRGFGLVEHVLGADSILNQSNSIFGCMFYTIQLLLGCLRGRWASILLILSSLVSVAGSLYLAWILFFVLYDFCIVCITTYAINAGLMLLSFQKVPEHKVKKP
The experiment in a line: Agar β-Gal^dbs assay, E. coli expressing RnVKOR. The format is cell-based. The note with it: FSH250 strain (Figure 4).

In assay [8] the test system is elastase (LasB) activity of P. aeruginosa wild type. The experiment in a line: Elastase in vivo assay, wild type P. aeruginosa. The format is cell-based. The note with it: Pseudomonas aeruginosa, 15 h, read-out: Elastase in vivo assay IC50, WT.
Assay [9] deals with T3, PaDsbB1 (ΔdsbB2) (Pseudomonas aeruginosa, UniProt Q02TM7).
T3 sequence (Q02TM7 1-169): T1 sequence (Q02TM7 1-169)
The experiment in a line: Elastase in vivo assay, ΔdsbB2 mutant. In kind it is cell-based, P. aeruginosa.

In assay [10] the target is T4, PaDsbB1 (Pseudomonas aeruginosa, UniProt Q02TM7, C154Y).
T4 sequence (Q02TM7 1-169 C154Y): T1 sequence (Q02TM7 1-169) with C154Y
The experiment in a line: In vitro ubiquinone reduction assay with purified PaDsbB1. In kind it is biochemical, P. aeruginosa.

Assay [11] has as its target T5, PaDsbB2 (Pseudomonas aeruginosa, UniProt Q02EA7, C17A/C53A).
T5 sequence (Q02EA7 1-163 C17A/C53A): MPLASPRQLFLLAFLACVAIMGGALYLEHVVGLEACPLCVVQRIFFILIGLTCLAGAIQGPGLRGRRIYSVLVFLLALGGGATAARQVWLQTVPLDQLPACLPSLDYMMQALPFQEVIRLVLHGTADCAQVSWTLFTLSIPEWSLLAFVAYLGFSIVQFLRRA
The experiment in a line: In vitro ubiquinone reduction assay with purified PaDsbB2. The format is biochemical, P. aeruginosa.

The target in assay [12] is T6, EcDsbB (Escherichia coli, UniProt P0A6M2, C49V/C8A).
T6 sequence (P0A6M2 1-176 C8A/C49V): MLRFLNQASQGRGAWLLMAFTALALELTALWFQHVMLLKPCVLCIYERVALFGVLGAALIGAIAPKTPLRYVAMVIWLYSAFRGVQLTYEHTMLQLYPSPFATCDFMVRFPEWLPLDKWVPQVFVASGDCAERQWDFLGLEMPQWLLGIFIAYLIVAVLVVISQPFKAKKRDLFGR
The experiment in a line: In vitro ubiquinone reduction assay with purified EcDsbB. The format is biochemical, E. coli.

Setting [13] is: read-out: PDI IC50, insulin reduction assay, Table 2, 95% CI in parenthesis.
Setting [14] is: read-out: In vitro assay MtVKOR Ki, 1–100 μM Ubiquinone-1, ±SD.

Experimental findings from article PMC6458069 (Molecular microbiology, 2019) are described below.

Molecules are shown by their SMILES. Residue numbers refer to the chain shown, from its start. ≈ marks a conversion by molar mass, not a printed value. Like-named read-outs stand apart in the source and are kept apart here.

Sequence of human protein disulfide isomerase (PDI) (P07237 18-508): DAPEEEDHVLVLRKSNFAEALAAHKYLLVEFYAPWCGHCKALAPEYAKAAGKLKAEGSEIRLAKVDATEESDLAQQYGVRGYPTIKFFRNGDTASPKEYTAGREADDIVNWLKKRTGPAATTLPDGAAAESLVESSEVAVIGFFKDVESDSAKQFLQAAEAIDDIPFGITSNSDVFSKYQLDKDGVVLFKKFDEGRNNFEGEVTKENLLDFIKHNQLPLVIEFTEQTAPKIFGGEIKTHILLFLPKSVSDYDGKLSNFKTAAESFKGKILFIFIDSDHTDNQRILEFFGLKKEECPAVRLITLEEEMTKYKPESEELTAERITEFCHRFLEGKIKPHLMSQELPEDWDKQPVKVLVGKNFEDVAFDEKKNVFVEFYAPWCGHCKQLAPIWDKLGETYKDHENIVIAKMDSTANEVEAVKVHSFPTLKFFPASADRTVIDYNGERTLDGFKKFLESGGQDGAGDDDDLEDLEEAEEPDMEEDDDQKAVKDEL

With `O=C1c2ccccc2C(=O)C1c1ccc(Br)cc1` [Bromindione, reference compound], in assay [1], it took 5 ± 0.73 µM to reach half-maximal inhibition (IC50) and affinity was put at a Ki of 1 ± 0.09 µM. The molecule also yielded an IC50 in assay [2] greater than 100 µM. For the same molecule, the “Inhibition of MtVKOR in E. coli screening strain (control)” value in assay [3] (agar plates, HTS control) is “inhibits”. Also, the “Inhibition of PaDsbB1 in E. coli screening strain (control)” value in assay [4] is “but not PaDsbB1”. Moreover, the “In vivo assay (MIC)” value in [5] was determined as 250 ± 0 µM.

With `O=C(Nc1ccccc1)c1cc(Cl)ccc1O` [MT1], the IC50 in assay [2] (setting [13]) is greater than 100 µM. Moreover, the “MIC in VKOR knockdown (induced) versus non-induced strain (in words)” value in assay [6] is listed as “lower MICs”. Further, the “Inhibition of RnVKOR expressed in E. coli” value (“Inhibition of RnVKOR” for short) in [7] is given as “inhibited”. Moreover, the “In vivo assay (MIC)” value in assay [5] came out at 50.5 ± 0 µM.

With `OC(CNCc1ccccc1)Cn1c2ccc(Cl)cc2c2cc(Cl)ccc21` (centres unmarked) [MT2], in assay [1] (setting [14]), the Ki was 4 ± 0.3 µM. For the same molecule, the IC50 in [2] (setting [13]) is greater than 100 µM. The “MIC in VKOR knockdown (induced) versus non-induced strain (in words)” value in [6] is “lower MICs”. Further, in assay [7], the “Inhibition of RnVKOR” value was “inhibited”. Also, the “In vivo assay (MIC)” value in assay [5] was 26.04 ± 9 µM.

`c1ccc(Nc2nc3nonc3nc2Nc2ccccc2)cc1` [MT7]: the IC50 in assay [2] (setting [13]) is greater than 100 µM. For the same molecule, the “MIC in VKOR knockdown (induced) versus non-induced strain (in words)” value in [6] is recorded as “lower MICs”. For the same molecule, the “Inhibition of RnVKOR” value in assay [7] is “inhibited”. In addition, the “In vivo assay (MIC)” value in assay [5] was determined as 41 ± 0 µM.

For the molecule `Nc1ncn([C@@H]2O[C@H](CO)[C@@H](O)[C@H]2O)c(=O)n1` [MT9], the Ki in assay [1] (setting [14]) worked out at 2 ± 0.05 µM. Further, in assay [2] (setting [13]), the half-maximal inhibitory concentration (IC50) is greater than 100 µM. Moreover, the “MIC against MtVKOR when expressed in E. coli (Figure 3)” value in assay [3] was found to be 0.44 µM (≈ 0.107 µg/mL). Besides, in assay [5], the “In vivo assay (MIC)” value is greater than 979 ± 0 µM.

`NC(=O)c1nc(Cl)c(Cl)c(Cl)c1Cl` [PA1]: the half-inhibitory concentration (IC50) in assay [8] was 280 µM; in assay [9], 121 µM; in assay [10], 530 ± 60 µM; in assay [11], 600 ± 50 µM; in [12] it was 150 ± 50 µM; in [2] it was greater than 100 µM. Further, in [12], the affinity, expressed as Ki, was 100 ± 30 µM. For the same molecule, in assay [2] (insulin reduction assay), the “Inhibition of PDI activity (in words)” value is reported as “does not target”. Moreover, in assay [7], the “Inhibition of RnVKOR” value is “does not target”.

For the molecule `N#CC(C#N)=NNc1ccccc1` [PA2], the IC50 was greater than 100 µM in [8]; greater than 100 µM in assay [9]; 83 ± 17 µM in assay [10]; 83 ± 13 µM in assay [11]; 37.5 ± 5 µM in [12]; 98.3 µM in [2]. For the same molecule, in assay [12], affinity was put at a Ki of 30 ± 7 µM. For the same molecule, in [2] (insulin reduction assay), the “Inhibition of PDI activity (in words)” value was “inhibited”.

On to `Cn1c(=O)c([N+](=O)[O-])c(Cl)c2ccccc21` [PA3], for which the IC50 was 646 µM in assay [8]; 9 µM in assay [9]; 6 ± 0.6 µM in assay [10]; 3 ± 0.11 µM in assay [11]; 98 µM in [2]. Besides, the Ki in [10] came out at 2.8 ± 0.2 µM; in assay [11] it was 7.5 ± 0.8 µM; in assay [12] it was 13 ± 1.5 µM. In addition, the “Inhibition of PDI activity (in words)” value in assay [2] (insulin reduction assay) is on record as “inhibited”.

Turning to `O=c1c(Cl)c(Cl)cnn1Cc1ccccc1Cl` [compound 12, reference compound], the IC50 is 229 µM in assay [8]; 8.6 µM in assay [9]; 4.1 ± 0.6 µM in assay [10]; 6 ± 1 µM in [11]; 0.014 ± 0.0001 µM in assay [12]; greater than 100 µM in assay [2]. In addition, the Ki in [10] amounted to 3 ± 0.2 µM; in assay [11], 4 ± 0.2 µM; in [12], 0.005 ± 0.001 µM. The “Inhibition of PaDsbB1 in E. coli screening strain (control)” value in [4] is “inhibits”.

In general, IC50 refers to the concentration at which inhibition is half-maximal. Usually Ki stands for a dissociation constant, usually derived from enzyme kinetics or from competition with a known ligand.
